Tested on: Tetrahymena pyriformis
Test: 48 h IGC50 (-log10 mol/L); higher = more toxic

Row | Structure (SMILES) | 48 h IGC50 (-log10 mol/L)
1 | COc1cccc(C=O)c1 | 3.23
2 | C=Cc1ccc2ccccc2c1 | 4.24
3 | CCCC(=O)O | 2.43
4 | CCCOC(=O)CC | 2.19
5 | N#C/C=C/c1ccccc1 | 3.16
6 | Cc1ccc(Cl)c(N)c1Cl | 3.69
7 | O=[N+]([O-])c1ccccc1Br | 3.75
8 | CCCC(C)N (stereo not given) | 2.31
9 | Cc1cccc(C#N)c1 | 2.75
10 | Cc1cc(N)ccc1O | 4.31
11 | CC(C)(C)c1ccncc1 | 3.2
12 | CC(O)CCC(C)O (stereo not given) | 1.04
13 | Cc1cc(O)c(Cl)cc1C | 3.69
14 | CCOC(=O)c1ccc([N+](=O)[O-])cc1 | 3.71
15 | Cc1cnccn1 | 1.91
16 | CC(C)c1ccc(C=O)cc1 | 3.67
17 | Cc1cc(O)cc(C)c1Br | 4.27
18 | C=COC(=O)CCCCC | 3.08
19 | Nc1c(Cl)c(Cl)cc(Cl)c1Cl | 4.76
20 | CC#CC(=O)OCC | 3.51
21 | O=Cc1ccc2c(c1)Cc1ccccc1-2 | 4.5
22 | CCC(C)CN (stereo not given) | 2.52
23 | CCCCCCN=C=S | 4.75
24 | CC(Br)C#N (stereo not given) | 3.63

Row | Structure (SMILES) | 48 h IGC50 (-log10 mol/L)
25 | N#CCCCC#N | 1.36
26 | CCOC(=O)C(Br)C(C)C (stereo not given) | 3.02
27 | CC(N)c1ccccc1 (stereo not given) | 2.82
28 | O=[N+]([O-])c1cc(Cl)ccc1Cl | 4.13
29 | C/C=C/C(=O)OCCCC | 2.84
30 | CCCCCCCCCCC=O | 4.69
31 | N#Cc1ccccc1O | 3.04
32 | CC=CC(C)O (stereo not given) | 1.6
33 | CCCCOC(=O)CCCCCCC(=O)OCCCC | 4.66
34 | C=CCS(=O)(=O)c1ccccc1 | 3.31
35 | O=C(O)c1cc(Br)ccc1Br | 2.69
36 | CCCC(=O)CCC | 2.33
37 | Nc1ccccc1Cl | 2.83
38 | CC(C)C#N | 1.38
39 | C#CCCCCO | 1.71
40 | CCOC(=O)C[C@H](C)O | 1.47
41 | CC(C)(Br)[N+](=O)[O-] | 4.85
42 | C=CSc1ccccc1 | 3.42
43 | Nc1c([N+](=O)[O-])ccc2ncccc12 | 3.92
44 | CC(C)CN | 2.74
45 | Oc1c(Cl)c(Cl)c(O)c(Cl)c1Cl | 5.11
46 | O=Cc1cc(I)cc(I)c1O | 5.34
47 | CCc1cccs1 | 2.57
48 | CCC(N)=O | 0.91

Row | Structure (SMILES) | 48 h IGC50 (-log10 mol/L)
49 | NC(=O)CCl | 3.04
50 | CC1CC(=O)O1 (stereo not given) | 2.24
51 | N#CC(Cl)(Cl)Cl | 4.88
52 | Cc1ccc(-c2ccccc2)cc1 | 4.66
53 | CC/C=C\CCCCCC=O | 3.95
54 | CCCC#CC(=O)OCC | 3.7
55 | NC(N)=NC(N)=Nc1ccccc1 | 2.61
56 | CC#CC(=O)OC | 3.4
57 | CCOc1ccc(C(=O)OC)cc1 | 3.58
58 | CCC(=O)OC | 1.39
59 | CCCCCC(=O)OC | 2.44
60 | O=[N+]([O-])c1cc(Cl)ccc1O | 5.12
61 | O=[N+]([O-])c1c(Cl)cc(Cl)cc1Cl | 4.43
62 | CCCCC(Br)C(=O)O (stereo not given) | 3.46
63 | CCCCCC1CCC(=O)O1 (stereo not given) | 3.01
64 | Clc1cccc(Br)c1Cl | 4.3
65 | OCc1ccc(-c2ccccc2)cc1 | 3.92
66 | CC(C)c1cccc(O)c1 | 3.61
67 | C=C(C)C(=O)OCCCCCC | 4.09
68 | CCc1cccc2ccccc12 | 3.89
69 | COC(=O)C=C(C)C | 1.94
70 | O=[N+]([O-])c1ccc(CCl)cc1 | 4.18
71 | Cc1c(O)ccc(O)c1C | 4.41
72 | Cc1cc(Br)cc(Cl)c1O | 4.28

Row | Structure (SMILES) | 48 h IGC50 (-log10 mol/L)
73 | OC1Cc2ccccc2C1 | 2.31
74 | C/C=C/C(=O)CCCC | 4.01
75 | O=Cc1ccc([N+](=O)[O-])s1 | 4.98
76 | C[C@H](N=C=S)c1ccccc1 | 5.7
77 | CCCCCC/C=C/CO | 3.75
78 | O=[N+]([O-])c1cc(O)ccc1Cl | 4.27
79 | Cc1cccc(C)n1 | 2.19
80 | Oc1cccc(Br)c1 | 4.15
81 | Brc1ccsc1 | 2.96
82 | Cc1ccsc1 | 2.3
83 | Oc1ccc(-c2ccc(Br)cc2)cc1 | 5.31
84 | O=Cc1c(O)ccc2ccccc12 | 4.32
85 | C=CC(=O)OC | 3.55
86 | Cc1ccc2ccccc2c1C=O | 4.23
87 | CCCCCCCCCC=CCO | 5.09
88 | C=CCCC(C)=O | 1.86
89 | O=C(CBr)c1cccs1 | 5.22
90 | CC(C)CCOC(=O)c1ccc(O)cc1 | 4.48
91 | C/C=C/c1ccc(O)c(OC)c1 | 3.75
92 | Oc1c(Cl)cc(F)cc1Cl | 3.8
93 | CC(=O)NC(C)(C)C | 1.84
94 | CCCCCCCC=CCO | 4.13
95 | CCCCCCC(=O)CCCCCC | 4.52
96 | CCCCCOC(=O)c1ccccc1 | 4.37

Row | Structure (SMILES) | 48 h IGC50 (-log10 mol/L)
97 | CCC(Br)C(=O)OC (stereo not given) | 4.02
98 | CCCCCCCCCOC(=O)c1ccc(O)cc1 | 5.63
99 | CCCCNC(=S)NCCCC | 3.86
100 | CC(O)(Cc1ccccc1)c1ccccc1 (stereo not given) | 3.8
101 | COc1ccccc1C=O | 3.15
102 | CC(C)OC(=O)CC#N | 2.05
103 | Nc1ccc([N+](=O)[O-])cn1 | 3.22
104 | CCCCC(=O)C(C)=O | 3.04
105 | CCCCCC#CC(=O)OCC | 4.24
106 | CCCCCCC(=O)OC | 3.1
107 | CC1=CCCC1=O | 2.17
108 | N#Cc1cccc2ccccc12 | 3.69
109 | N#Cc1ccccc1C(N)=O | 2.68
110 | CCS(=O)(=O)c1ccccc1 | 2.21
111 | O=C(CO)c1ccccc1 | 3.08
112 | O=Cc1ccc(O)cc1Cl | 3.89
113 | CCCCCOc1ccc(O)cc1 | 4.36
114 | Cc1ccc(C)c(O)c1 | 3.14
115 | O=[N+]([O-])c1ccccc1-c1ccccc1 | 4.3
116 | Cc1nc2ccccc2nc1C | 3.25
117 | O=[N+]([O-])c1ccc(F)c(Cl)c1 | 3.8
118 | CCCCCCCCCN | 4.7
119 | O=C(/C=C/c1ccccc1)N=C=S | 3.29
120 | O=C(O)c1cc(Cl)ccc1O | 2.6

Source: EPA's aquatic toxicity sets
